Source: patent US20240197678A1, “INHIBITORS OF THE PEPTIDYL-PROLYL CIS/TRANS ISOMERASE (PIN1) AND USES THEREOF” (DANA-FARBER CANCER INSTITUTE, INC., priority 2021, published 2024)
“Also recorded” adds a separate entry of the source.

Legend:
Pin1 [1] = biological target: T1, Pin1 (Homo sapiens, UniProt Q13526); assay: Fluorescence polarization (FP) assay, binding to Pin1; settings: for Ki: 1 h incubation with Pin1, read-out: Ki (binding affinity to Pin1, Kenakin Ki from FP EC50)
Description: FIG. 3 is a fluorescence polarization readout following 1 h incubation of the indicated compounds with Pin1. Data points are plotted as the average of n=3 independent samples+SEM. Binding affinity to Pin1 was determined using a fluorescence polarization assay. Ki values obtained from the FP assay results were derived from the Kenakin Ki equation: Kenakin Ki=(Lb)(EC50)(Kd)/(Lo)(Ro)+Lb(Ro−Lo+Lb−Kd), where Kd [M]: Kd of the probe, EC50 [M]: obtained from FP assay, total tracer Lo [M]: probe concentration in FP, bound tracer Lb [M]: 85% of probe concentration binds to target protein, total receptor Ro [M]: Pin1 concentration in the FP assay, as described (Auld et al. Receptor binding assays for HTS and drug discovery. in Assay Guidance Manual eds. Sittampalam, G.S., et al. Eli Lilly & Company and the National Center for Advancing Translational Sciences, 2004).

Pin1 [2] = biological target: T1, Pin1; assay: Molt4 cells competition with Pin1-3 desthiobiotin probe, streptavidin pull-down and immunoblot (Pin1 engagement); assay type: cell-based; parameters: endogenous in cells; host or cells: Molt4; settings: Molt4 cells treated 5 h, streptavidin pull-down, immunoblot
Description: FIG. 4 is an immunoblot displaying the result of Molt4 cells treated in a competition format with the indicated concentrations of Pin1-3, Pin1-3 P1, and Pin1-3 P2 for 5 h, followed by cell lysis, incubation with TM-03-163 (Pin1-3 desthiobiotin), streptavidin pull-down, and immunoblot analysis. […] Molt4 cells were treated in a competition format with Pin1-3, Pin1-3 P1, and Pin1-3 P2 for 5 h, followed by cell lysis, incubation with […] (Pin1-3 desthiobiotin), followed by streptavidin pulldown and immunoblot analysis.

T1 sequence (Q13526 whole entry): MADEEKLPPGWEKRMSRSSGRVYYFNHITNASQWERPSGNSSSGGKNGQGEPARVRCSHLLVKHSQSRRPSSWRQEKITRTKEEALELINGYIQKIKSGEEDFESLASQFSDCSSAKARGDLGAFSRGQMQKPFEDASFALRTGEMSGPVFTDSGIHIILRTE

## CC(C)(C)CN(C(=O)CCl)C1CCS(=O)(=O)C1 (racemic) [Pin1-3, reference compound]
Pin1 [1]
  Ki: ~286 nM

## CC(C)(C)CN(C(=O)CCl)[C@@H]1CCS(=O)(=O)C1 (single isomer, unassigned) [Pin1-3 P1]
Pin1 [2]
  Engagement of Pin1 in Molt4 cells: engages Pin1 more potently than Pin1-3
Pin1 [1]
  Ki: ~70 nM

## CC(C)(C)CN(C(=O)CCl)[C@H]1CCS(=O)(=O)C1 [Pin1-3 P2, (S)-2-chloro-N-(1,1-dioxidotetrahydrothiophen-3-yl)-N-neopentylacetamide]
Pin1 [2]
  Engagement of Pin1 in Molt4 cells: did not display engagement; also recorded: no engagement
Pin1 [1]; 1 h incubation with Pin1
  Ki (binding affinity to Pin1, Kenakin Ki from FP EC50): unable to be determined
